Experimental data from US12653802B2, “Method for treating lung cancer” (priority 2020, dated 2026).

How the values were obtained:
H1650 cells = assay: Growth inhibition of EGFR gene mutant NSCLC cells, cell survival stained with crystal violet, IC50 (FIG. 1A); type: cell-based; conditions: treated for 3 days, versus parent compound curcumin
Protocol: The EGFR gene mutant NSCLC cells were treated with the diarylheptanoid compounds of the present disclosure, and then the cell survival was stained with crystal violet to measure the IC50 values of the diarylheptanoid compounds of the present disclosure in the EGFR gene mutant NSCLC cells, so as to determine the growth inhibitory effect of the diarylheptanoid compounds of the present disclosure on the EGFR gene mutant NSCLC cells.
EGFR gene mutations in lung cancer are mostly found in exons 18-21, which are the intracellular tyrosine kinase coding region. The most common mutations include E746-A750del in exon 19 and L858R point mutation in exon 21, which account for about 85%-90% of EGFR gene mutations. Tumor cells with these two mutations are sensitive to the EGFR-TKIs, known as activating mutations. Secondary mutations may occur in some tumor cells, and the most common secondary mutation is the T790M mutation in exon 20, which is a drug resistance mutation. […] The H1650 cells have the E746-A750del mutation in exon 19 of the EGFR gene, wherein the CCM represents curcumin and the BDMC represents bisdemethoxycurcumin.

H1975 cells = assay: Cell survival assay in EGFR-TKIs resistant NSCLC cells, IC50 (FIG. 1B); type: cell-based; conditions: treated for 3 days, versus curcumin
Protocol: (§1) Experimentally, another 7 EGFR-TKIs resistant NSCLC cells were treated with Compound 21a, Compound 35a, Compound 35d, Compound 36 or Compound 37, and then the cell survival assay was performed to measure the IC50 values of the diarylheptanoid compounds of the present disclosure in the EGFR-TKIs resistant NSCLC cells, so as to determine the growth inhibitory effect of the diarylheptanoid compounds of the present disclosure on the EGFR-TKIs resistant NSCLC cells.
(§2) Please refer to FIG. 1B, FIG. 1C and FIG. 1D.

GR10 cells = assay: Cell survival assay in gefitinib-resistant NSCLC cells, IC50 (FIG. 1C); type: cell-based; conditions: treated for 3 days, versus curcumin
Protocol: as §1, §2

GR2 cells = assay: as above; type: cell-based; conditions: treated for 3 days, versus curcumin
Protocol: as §1, §2

GR5 cells = assay: as above; type: cell-based; conditions: treated for 3 days, versus curcumin
Protocol: as §1, §2

GR6 cells = assay: as above; type: cell-based; conditions: treated for 3 days, versus curcumin
Protocol: as §1, §2

GR8 cells = assay: as above; type: cell-based; conditions: treated for 3 days, versus curcumin
Protocol: as §1, §2

GR9 cells = assay: as above; type: cell-based; conditions: treated for 3 days, versus curcumin
Protocol: as §1, §2

[1] = Body weight changes in the tumor mice treated with Compound 35d alone (FIG. 2D); type: in vivo; conditions: 100 mg/kg daily, treated for more than 1 month
Protocol: In order to verify the anticancer effect of the diarylheptanoid compound of the present disclosure in vivo, the GR6 tumor mouse model, the GR8 tumor mouse model and the HCC827 tumor mouse model of xenotransplantation were first established, and the GR6 tumor mice, the GR8 tumor mice, and the HCC827 tumor mice were treated with 100 mg/kg of Compound 35d daily for 35 days, and the tumor size and body weight of the GR6 tumor mice, the GR8 tumor mice, and the HCC827 tumor mice were recorded.

[2] = Body weight changes in GR6 tumor mice, single and combined treatment (FIG. 3B); type: in vivo; conditions: Compound 35d 100 mg/kg per day alone or with osimertinib 1 mg/kg per day
Protocol: (§3) EGFR-TKIs are currently the standard treatment for NSCLC patients with the EGFR gene mutation. To further test whether the combined use of the diarylheptanoid compound of the present disclosure and known drug can enhance the therapeutic effect of NSCLC, the GR6 tumor mice were divided into 4 groups. One group received 100 mg/kg Compound 35d treatment per day (represented as 35d), another group received 1 mg/kg osimertinib treatment per day (represented as Osi), still another group received the combined treatment of 100 mg/kg Compound 35d and 1 mg/kg osimertinib per day (represented as 35d+Osi), and the other group was the control group without drug treatment.

GR6 tumor = assay: Tumor re-progression in GR6 tumor mice, single and combined treatment with osimertinib (FIG. 3A); type: in vivo; conditions: Compound 35d 100 mg/kg per day, osimertinib 1 mg/kg per day, alone or combined
Protocol: as §3

| Compound | inhibitory activity on the growth of the H1650 cells (IC50) compared with curcumin (H1650 cells) | inhibitory activity on the growth of the H1975 cells (IC50) compared with curcumin (H1975 cells) | inhibitory activity on the growth of the GR10 cells (IC50) compared with curcumin (GR10 cells) | inhibitory activity on the growth of the GR2 cells (IC50) compared with curcumin (GR2 cells) | inhibitory activity on the growth of the GR5 cells (IC50) compared with curcumin (GR5 cells) | inhibitory activity on the growth of the GR6 cells (IC50) compared with curcumin (GR6 cells) | inhibitory activity on the growth of the GR8 cells (IC50) compared with curcumin (GR8 cells) | inhibitory activity on the growth of the GR9 cells (IC50) compared with curcumin (GR9 cells) | body weight of the tumor mice [1] | body weight of the GR6 tumor mice [2] | tumor size / tumor re-progression in the GR6 tumor mice (GR6 tumor) |
| --- | --- | --- | --- | --- | --- | --- | --- | --- | --- | --- | --- |
| COc1cc(/C=C/C(=O)/C=C(O)/C=C/c2ccc(OC(=O)C(C)(CO)CO)c(OC)c2)ccc1OC(=O)C(C)(CO)CO [Compound 21a, ((1E,3Z,6E)-3-hydroxy-5-oxohepta-1,3,6-triene-1,7-diyl)bis(2-methoxy-4,1-phenylene)bis(3-hydroxy-2-hydroxymethyl)-2-methylpropanoate] | significantly better inhibitory activity than the parent compound—curcumin | significantly better inhibitory activity than curcumin | significantly better inhibitory activity than curcumin | significantly better inhibitory activity than curcumin | significantly better inhibitory activity than curcumin | significantly better inhibitory activity than curcumin | significantly better inhibitory activity than curcumin | significantly better inhibitory activity than curcumin | – | – | – |
| COc1cc(/C=C/C(=O)C(C)(C)C(=O)/C=C/c2ccc(OC(=O)C(C)(CO)CO)c(OC)c2)ccc1OC(=O)C(C)(CO)CO [Compound 35a, ((1E,6E)-4,4-dimethyl-3,5-dioxohepta-1,6-diene-1,7-diyl)bis(2-methoxy-4,1-phenylene)bis(3-hydroxy-2-hydroxymethyl)-2-methylpropanoate] | significantly better inhibitory activity than the parent compound—curcumin | significantly better inhibitory activity than curcumin | significantly better inhibitory activity than curcumin | significantly better inhibitory activity than curcumin | significantly better inhibitory activity than curcumin | significantly better inhibitory activity than curcumin | significantly better inhibitory activity than curcumin | significantly better inhibitory activity than curcumin | – | – | – |
| C#CCC(CC#C)(C(=O)/C=C/c1ccc(OC(=O)C(C)(CO)CO)c(OC)c1)C(=O)/C=C/c1ccc(OC(=O)C(C)(CO)CO)c(OC)c1 [Compound 35d, ((1E,6E)-3,5-dioxo-4,4-di(prop-2-yn-1-yl)hepta-1,6-diene-1,7-diyl)bis(2-methoxy-4,1-phenylene)bis(3-hydroxy-2-(hydroxymethyl)-2-methylpropanoate)] | – | – | – | – | – | – | – | – | did not decrease significantly | neither the single treatment of Compound 35d nor the combined treatment of Compound 35d and osimertinib can significantly reduce the body weight | – |
| C=CC(=O)Nc1cc(Nc2nccc(-c3cn(C)c4ccccc34)n2)c(OC)cc1N(C)CCN(C)C [osimertinib] | – | – | – | – | – | – | – | – | – | – | initially reduced by osimertinib treatment, the treated tumors subsequently re-growth |
